Results published in the supplement of paper PMC10307832.

Key:
Assay in all cases: relative viability (nuclei count vs DMSO), 5 days (fraction); higher = more cells survive
[1] = compound: CN(C)C/C=C/C(=O)Nc1cc2c(Nc3ccc(F)c(Cl)c3)ncnc2cc1O[C@H]1CCOC1 [Afatinib] + CC(=O)Nc1cccc(-n2c(=O)n(C3CC3)c(=O)c3c(Nc4ccc(I)cc4F)n(C)c(=O)c(C)c32)c1 [Trametinib] (partner 0.02 µM)
How it was run: (§1)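 Values are medians from duplicate plates. Each reflects relative viability, defined as the nuclei count of treated wells over that of vehicle wells. Lung cancer cell lines in 1536-well plates were pin-tool dosed one day after seeding with one drug alone or with a fixed anchor-drug dose plus five library-drug doses (not always all listed) in √10 steps, then fixed, stained and imaged at 4× after 5 days.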

[2] = compound: CN(C)C/C=C/C(=O)Nc1cc2c(Nc3ccc(F)c(Cl)c3)ncnc2cc1O[C@H]1CCOC1 [Afatinib] + COc1cccc2cc(-c3nc([C@H]4CC[C@H](C(=O)O)CC4)n4ncnc(N)c34)[nH]c12 [OSI-027] (partner 0.5 µM)
How it was run: as §1

[3] = compound: CN(C)C/C=C/C(=O)Nc1cc2c(Nc3ccc(F)c(Cl)c3)ncnc2cc1O[C@H]1CCOC1 [Afatinib] + N=C(N)NC(=N)NCCc1ccccc1 [Phenformin] (partner 250 µM)
How it was run: as §1

[4] = compound: CN(C)C/C=C/C(=O)Nc1cc2c(Nc3ccc(F)c(Cl)c3)ncnc2cc1O[C@H]1CCOC1 [Afatinib] + C[C@@H](Oc1cc(-c2cnn(C3CCNCC3)c2)cnc1N)c1c(Cl)ccc(F)c1Cl [Crizotinib] (partner 1 µM)
How it was run: as §1

| Cell Line | relative viability ([1]; first compound 0.005 µM) | relative viability ([1]; first compound 0.01581 µM) | relative viability ([1]; first compound 0.05 µM) | relative viability ([1]; first compound 0.1581 µM) | relative viability ([1]; first compound 0.5 µM) | relative viability ([2]; first compound 0.005 µM) | relative viability ([2]; first compound 0.01581 µM) | relative viability ([2]; first compound 0.05 µM) | relative viability ([2]; first compound 0.1581 µM) | relative viability ([2]; first compound 0.5 µM) | relative viability ([3]; first compound 0.005 µM) | relative viability ([3]; first compound 0.01581 µM) | relative viability ([3]; first compound 0.05 µM) | relative viability ([3]; first compound 0.1581 µM) | relative viability ([3]; first compound 0.5 µM) | relative viability ([4]; first compound 0.005 µM) | relative viability ([4]; first compound 0.01581 µM) | relative viability ([4]; first compound 0.05 µM) | relative viability ([4]; first compound 0.1581 µM) | relative viability ([4]; first compound 0.5 µM) |
| --- | --- | --- | --- | --- | --- | --- | --- | --- | --- | --- | --- | --- | --- | --- | --- | --- | --- | --- | --- | --- |
| NCI-H322M | 0.492 | 0.463 | 0.458 | 0.43 | 0.442 | 0.511 | 0.422 | 0.463 | 0.356 | 0.397 | 0.636 | 0.433 | 0.535 | 0.463 | 0.446 | 0.775 | 0.676 | 0.544 | 0.359 | 0.293 |
| NCI-H358 | 0.119 | 0.115 | 0.13 | 0.102 | 0.127 | 0.484 | 0.316 | 0.239 | 0.19 | 0.189 | 0.266 | 0.171 | 0.171 | 0.163 | 0.175 | 0.541 | 0.423 | 0.387 | 0.241 | 0.256 |
| NCI-H441 | 0.536 | 0.347 | 0.396 | 0.325 | 0.384 | 0.677 | 0.582 | 0.499 | 0.481 | 0.426 | 0.92 | 0.748 | 0.916 | 0.736 | 0.797 | 0.691 | 0.789 | 0.85 | 0.841 | 0.652 |
| NCI-H460 | 0.161 | 0.139 | 0.187 | 0.133 | 0.136 | 0.716 | 0.629 | 0.676 | 0.705 | 0.666 | 0.549 | 0.517 | 0.536 | 0.558 | 0.498 | 0.878 | 0.748 | 0.885 | 0.809 | 0.875 |
| NCI-H520 | 0.892 | 0.633 | 0.725 | 0.734 | 0.545 | 0.357 | 0.198 | 0.201 | 0.261 | 0.234 | 0.562 | 0.593 | 0.689 | 0.609 | 0.57 | 1.33 | 0.851 | 0.832 | 0.749 | 0.737 |
| NCI-H596 | 0.783 | 0.725 | 0.834 | 0.782 | 0.797 | 0.728 | 0.701 | 0.746 | 0.613 | 0.651 | 0.804 | 0.804 | 0.729 | 0.753 | 0.685 | 0.987 | 0.866 | 0.94 | 0.904 | 0.921 |
| NCI-H647 | 0.554 | 0.465 | 0.451 | 0.468 | 0.438 | 0.582 | 0.629 | 0.487 | 0.705 | 0.554 | 0.664 | 0.481 | 0.57 | 0.692 | 0.445 | 1.26 | 1.13 | 1.01 | 1.04 | 1.19 |
| NCI-H650 | 0.947 | 0.983 | 0.991 | 0.969 | 1.01 | 0.557 | 0.475 | 0.566 | 0.516 | 0.503 | 0.498 | 0.46 | 0.446 | 0.498 | 0.351 | 0.856 | 0.674 | 0.72 | 1.01 | 0.683 |
| NCI-H661 | 0.52 | 0.415 | 0.457 | 0.367 | 0.369 | 0.558 | 0.458 | 0.528 | 0.386 | 0.367 | 0.292 | 0.255 | 0.253 | 0.247 | 0.244 | 1.25 | 1.03 | 0.996 | 0.838 | 0.773 |
| NCI-H727 | 0.391 | 0.359 | 0.393 | 0.299 | 0.34 | 0.699 | 0.447 | 0.511 | 0.49 | 0.56 | 0.493 |  | 0.299 | 0.613 | 0.442 | 0.804 | 0.802 | 0.53 | 0.541 | 0.583 |
| NCI-H838 | 0.585 | 0.434 | 0.523 | 0.525 | 0.685 | 0.445 | 0.353 | 0.371 | 0.365 | 0.363 | 0.675 | 0.54 | 0.582 | 0.567 | 0.553 | 0.782 | 0.87 | 0.901 | 0.791 | 0.937 |
| NCI-H1355 | 0.366 | 0.428 | 0.381 | 0.306 | 0.341 | 0.388 | 0.341 | 0.348 | 0.361 | 0.276 | 0.484 | 0.491 | 0.482 | 0.424 | 0.421 | 1.16 | 0.983 | 1.01 | 0.792 | 0.816 |
| NCI-H1437 | 0.434 | 0.413 | 0.472 | 0.414 | 0.434 | 0.988 | 0.848 | 0.894 | 0.873 | 0.9 | 0.333 | 0.294 | 0.334 | 0.358 | 0.302 | 0.985 | 1.01 | 0.988 | 0.881 | 0.966 |
| NCI-H1650 | 0.431 | 0.357 | 0.475 | 0.484 | 0.365 | 0.476 |  | 0.557 | 0.439 | 0.397 | 0.368 |  | 0.351 | 0.308 | 0.308 | 0.907 |  | 0.8 | 0.612 | 0.796 |
| NCI-H1651 | 0.856 | 0.862 | 0.838 | 0.808 | 0.785 | 0.688 | 0.618 | 0.61 | 0.67 | 0.627 | 0.368 | 0.333 | 0.288 | 0.329 | 0.332 | 0.911 | 0.85 | 0.817 | 0.855 | 0.82 |
| NCI-H1666 | 0.673 | 0.648 | 0.776 | 0.815 | 0.791 | 0.88 | 0.759 | 0.657 | 0.581 | 0.612 | 0.572 | 0.553 | 0.607 | 0.555 | 0.567 | 0.879 | 0.885 | 0.661 |  | 0.676 |
